Assay [1] concerns AD crude brain extracts. Briefly: Seeding by crude AD brain extract pre-treated with inhibitor, tau biosensor cells (Example 5). Type of assay: cell-based, human. To be noted: 10 μM final on cells, pre-incubated 16-18 hours. From the text:
(A) Seeding by crude AD brain extract pre-treated with EGCG or experimental linker-conjugated analogs, as indicated. Inhibitor activity is read-out by measuring seeding in tau biosensor cells. Seeding is taken as a proxy for the fibril load that is contained within the AD crude brain extracts. Reduction in fibril load following treatment with experimental linker-conjugated analogs of EGCG reduces prion-like seeding by AD-tau nearly as effectively as EGCG itself. (B) Representative fluorescence images of tau biosensor cells experiments from A. Intracellular aggregates seeded by crude AD brain extracts are identified as puncta (green dots in the “No inhibitor” treated sample, left fluorescence micrograph). Inhibitor treatment reduces the number of puncta (right fluorescence micrograph). The number of puncta as a function of inhibitor pre-treatment is plotted in A.
We next tested if the D-ring site of triazole-linked amino PEGylation would interfere with tau fibril disaggregation observed for EGCG. […] Crude extract of autopsied brain tissue of a donor with AD (prepared as described in the SI) were pre-incubated with inhibitors (10 μM final concentration on cells) for 16-18 hours and resulting homogenates were added to the cells for imaging 3 days later.

Assay [2] deals with crude AD brain extract. Briefly: Seeding by crude AD brain extract in tau biosensor cells, Ferumoxytol conjugates, no pre-incubation. Type of assay: cell-based, human. The settings on record: mixed with extract and immediately transfected. From the text:
(A) Seeding by crude AD brain extract measured in tau biosensor cells that were co-transfected with nanoparticles coupled to EGCG by linkers of varying length. (B-C) Negative-stain electron micrographs of EGCG-conjugated and non-conjugated nanoparticles. Nanoparticle coupled with EGCG analog 5c (B) cluster with fibrils of AD-tau. No clustering is seen between non-conjugated nanoparticles and AD-tau fibrils (C).
We tested the activity of Ferumoxytol conjugated EGCG analogs using the biosensor cell assay described above, except we omitted the pre-incubation step such that our assay more closely resembled the scenario of therapeutic intervention, for which there is no pre-incubation period. Nanoparticle conjugated EGCG derivative was mixed with crude AD brain extract and immediately transfected into tau biosensor cells.

In assay [3] the target is T1, recombinant tau-K18+ fibrils (Homo sapiens, UniProt P10636). Briefly: Isothermal titration calorimetry (ITC). To be noted: 750 μM EGCG into 75 μM fibrils, 1 site binding model. As to the method:
(§1) (a) Isothermal titration calorimetry (ITC) of 750 μM EGCG into 75 μM recombinant tau-K18+ fibrils. The binding isotherm was fit using a standard 1 site binding model. (b) ThT assay showing the effect EGCG or negative control, doxycycline, have on the aggregation of 20 μM tau-K18+ monomer^33, a construct that contains all of the residues that are observed in the AD tau fibril core^7,9. Note the sudden drop in ThT signal at 10 hrs (marked by a red arrow) for the sample containing EGCG. (c) Negative stain electron micrographs of 75 μM recombinant tau-K18+ fibrils prior to incubation with EGCG (top) or following 1 or 3 hour incubation with a two-fold molar excess of EGCG at room temperature, as indicated. (d) As in c except EGCG micrographs of tau are of fibrils purified from AD brain tissue and EGCG treatments were carried out at a concentration of 100 μM for a 3 hour or overnight duration at 37° C., as indicated.
Human Tau tau-K18+(residues Q244-E380 of 4R tau) was expressed in a pNG2 vector in BL21-Gold E. coli cells grown in LB to an OD600=0.8. Cells were induced with 0.5 mM IPTG for 3 hours at 37° C. and lysed by sonication in 20 mM MES buffer (pH 6.8) with 1 mM EDTA, 1 mM MgCl2, 1 mM DTT and HALT protease inhibitor before addition of NaCl 500 mM final concentration. […]

Assay [4] deals with T2, tau-K18+ monomer (Homo sapiens, UniProt P10636).
T2 construct: Human Tau tau-K18+(residues Q244-E380 of 4R tau); made in house; host or cells: E. coli BL21-Gold, pNG2 vector
T2 sequence (P10636 561-697): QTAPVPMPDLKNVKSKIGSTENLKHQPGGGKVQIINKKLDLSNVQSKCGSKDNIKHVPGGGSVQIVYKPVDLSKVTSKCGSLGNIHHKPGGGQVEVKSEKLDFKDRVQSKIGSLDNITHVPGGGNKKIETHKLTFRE
The experiment in a line: ThT aggregation kinetics assay. To be noted: 20 μM tau-K18+ monomer, equimolar inhibitor. It is filed as biochemical. As to the method:
as §1
Concentrated tau-K18+ was diluted into PBS buffer (pH 7.4) to a final concentration of 20 μM with an equimolar ratio of indicated small molecule inhibitor. […] ThT fluorescence was measured with excitation and emission wavelengths of 440 and 480 nm, and averaged curves were generated from triplicate measurements as indicated in the figure legend. […]

Assay [5] concerns the target T1, recombinant tau-K18+ fibrils. Briefly: Negative stain electron microscopy of recombinant tau fibrils. The settings on record: 75 μM fibrils, two-fold molar excess of EGCG, 3 hr, room temperature. As to the method:
as §1

Assay [6] deals with tau fibrils purified from AD brain tissue. The experiment in a line: Negative stain electron microscopy of AD brain-derived tau fibrils. Also on record: species or system human. To be noted: 100 μM EGCG, overnight, 37° C. On the procedure:
as §1
To prepare specimens of AD brain-derived tau fibrils for structural studies, we examined negatively stained EM grids of purified tau fibrils from the frontal cortex of AD donor 1 (FIG. 1a) at various times following incubation with EGCG. AD brain-derived tau fibrils were more robust than recombinant tau fibrils and disaggregation was accelerated by incubation at 37° C. […]

In assay [7] the target is PHFE2 fibrils (Homo sapiens, UniProt P10636). Briefly: ThT measurement of PHFE2 peptide fibrils. The settings on record: 5 mM EGCG, 30 mM fibrils, 30 min incubation.
Protocol: (c) ThT signal of fibrils formed from PHFE2 peptide without EGCG, or following 30 min incubation. Error bars show the standard deviation of triplicate measurements.
Fibrils were grown at 37° C. in an orbital shaker with shaking at 350 rpm for 3-4 weeks. Solutions were removed from shaking and heat upon appearance of fibrils, confirmed by negative stain EM. For ThT experiments, fibrils were diluted to 30 mM in PBS, and ThT was added to a final concentration of 40 μM. EGCG was added from a concentrated stock to a final concentration of 5 mM where indicated. ThT measurements were carried out as described above, except readings were taken from a 384-well plate with a volume of 35 μl.
Assay [8] concerns crude brain extracts from donors with AD. Briefly: Inhibition of seeding by crude AD brain extracts in tau biosensor cells. The settings on record: 10 μM.
Protocol: (§2) (a) Seeding following overnight preincubation of AD brain purified tau fibrils with a final inhibitor concentration of 10 μM. Seeding was measured 3 days after transfecting biosensor cells with fibril-inhibitor complexes. […] Error bars show the standard deviation of triplicate measurements. […] Seeding (expressed as 10 power) was measured as in a, and IC50 values were calculated from dose-response plots. […] Each column represents the inhibitor response of a different donor. Inhibitor concentrations were 10 μM. Responses to inhibitors were normalized to seeding in the absence of inhibitor, abbreviated “No Inh”, and normalized seeding values for each inhibitor were plotted from maximal inhibitor response (low fractional seeding, left) to minimal response (seeding approaching a value of 1.0, right) for each of the indicated inhibitors.
(§3) After twenty minutes, 10 μl of fibrils were added to 90 μl of tau biosensor cells. The number of seeded aggregates was determined by imaging the entire well of a 96-well plate in triplicate using a Celigo Image Cytometer (Nexcelom) in the YFP channel. Aggregates were counted using ImageJ^45 by subtracting the background fluorescence from unseeded cells and then counting the number of peaks with fluorescence above background using the built-in Particle Analyzer. […]
Assay [9] concerns crude brain extracts from donors with PSP. The experiment in a line: Inhibition of seeding by crude PSP brain extracts in tau biosensor cells. To be noted: 10 μM, N=7 donors.
Protocol: as §2, §3
Assay [10] deals with tau fibrils purified from AD brain. Briefly: Inhibition of seeding in tau-K18 biosensor cells, AD brain purified tau fibrils as seeds. To be noted: 10 μM inhibitor, overnight preincubation, seeding measured 3 days after transfection.
Protocol: as §2, §3
Assay [11] concerns the target fibrils of recombinant tau40 (Homo sapiens, UniProt P10636). Briefly: EGCG dose dependence on seeding in tau biosensor cells, fibrils of recombinant tau40 as seeds.
Protocol: Error bars show the standard deviation of triplicate measurements. […] (e) EGCG dose dependence on seeding by fibrils of recombinant tau40. Seeding (expressed as 10 power) was measured as in a, and IC50 values were calculated from dose-response plots.
After twenty minutes, 10 μl of fibrils were added to 90 μl of tau biosensor cells. The number of seeded aggregates was determined by imaging the entire well of a 96-well plate in triplicate using a Celigo Image Cytometer (Nexcelom) in the YFP channel. Aggregates were counted using ImageJ^45 by subtracting the background fluorescence from unseeded cells and then counting the number of peaks with fluorescence above background using the built-in Particle Analyzer. The number of aggregates was normalized to the confluence of each well, and dose-response plots were generated by calculating the average and standard deviations from triplicate measurements. For high quality images, cells were photographed on a ZEISS Axio Observer D1 fluorescence microscope using the YFP fluorescence channel.

What is called IC50 is the concentration at which inhibition is half-maximal.

T1 sequence (P10636 561-697): as above
fibrils of recombinant tau40, sequence (P10636 1-441 isoform P10636-8): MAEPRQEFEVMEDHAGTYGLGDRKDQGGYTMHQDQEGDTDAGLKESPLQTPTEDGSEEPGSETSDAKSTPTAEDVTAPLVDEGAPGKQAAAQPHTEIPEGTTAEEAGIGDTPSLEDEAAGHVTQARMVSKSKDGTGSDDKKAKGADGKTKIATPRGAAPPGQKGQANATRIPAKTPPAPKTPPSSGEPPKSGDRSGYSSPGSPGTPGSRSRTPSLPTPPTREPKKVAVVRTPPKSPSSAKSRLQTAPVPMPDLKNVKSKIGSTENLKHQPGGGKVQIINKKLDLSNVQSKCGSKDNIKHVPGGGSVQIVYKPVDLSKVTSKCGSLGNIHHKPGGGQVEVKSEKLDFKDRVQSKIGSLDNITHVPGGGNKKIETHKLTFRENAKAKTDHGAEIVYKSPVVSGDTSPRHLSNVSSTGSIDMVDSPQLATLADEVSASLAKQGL

With `NCCOCCOCCOCCn1cc(COc2c(O)cc(C(=O)O[C@@H]3Cc4c(O)cc(O)cc4O[C@@H]3c3cc(O)c(O)c(O)c3)cc2O)nn1` [Compound 5c, (2R,3R)-5,7-dihydroxy-2-(3,4,5-trihydroxyphenyl)chroman-3-yl 4-((1-(2-(2-(2-(2-aminoethoxy)ethoxy)ethoxy)ethyl)-H-1,2,3-triazol-4-yl)methoxy)-3,5-dihydroxybenzoate], the “inhibition of seeding by AD brain extracts compared with EGCG” value in [1] is listed as “potency nearly on par with EGCG itself”.

On to `NCCOCCn1cc(COc2c(O)cc(C(=O)O[C@@H]3Cc4c(O)cc(O)cc4O[C@@H]3c3cc(O)c(O)c(O)c3)cc2O)nn1` [Compound 5a, (2R,3R)-5,7-dihydroxy-2-(3,4,5-trihydroxyphenyl)chroman-3-yl 4-((1-(2-(2-aminoethoxy)ethyl)-H-1,2,3-triazol-4-yl)methoxy)-3,5-dihydroxybenzoate], for which the “inhibition of seeding by crude AD brain extract, Ferumoxytol conjugated analogs” value in assay [2] is on record as less than 50%.

Turning to `O=C(O[C@@H]1Cc2c(O)cc(O)cc2O[C@@H]1c1cc(O)c(O)c(O)c1)c1cc(O)c(O)c(O)c1` [EGCG, (−)-epigallocatechin gallate], the “stoichiometry N (ITC)” value in [3] is given as 0.86. In assay [3] (read-out: affinity (ITC)), the Kd worked out at 1.6 µM. Also, in assay [4], the “ThT signal of fibrils formed in the presence of inhibitor” value is recorded as “abruptly fell after reaching a plateau at 10 hr” and the “lag time of tau aggregation (ThT)” value is “no shift in the lag time”. In [5], the “disaggregation of recombinant tau fibrils (EM)” value is reported as “virtually vanish”. Moreover, the “disaggregation of AD brain-derived tau fibrils (EM)” value in assay [6] was “most of the AD brain-derived tau fibrils are lost”. The “ThT signal of PHFE2 fibrils after addition of inhibitor” value in assay [7] was “eliminated nearly any measurable ThT signal”. The “fractional seeding by AD brain samples” value in assay [8] (15 AD crude brain extracts, normalized to no inhibitor) is given as “zero”. For the same compound, the “inhibition of seeding by crude AD brain extracts” value in [8] (N=15 donors, all patient samples) is given as “at least 50%”. Also, the “blocking of seeding by crude PSP brain extracts” value in assay [9] was “near perfect efficacy”. Besides, in assay [9] (all patient samples), the “inhibition of seeding by crude PSP brain extracts” value was “at least 50%”. In addition, the “inhibition of seeding by tau fibrils purified from AD brain” value in [10] was “most effective inhibitors of seeding”. Besides, the IC50 in [11] was determined as 0.4 µM.

Regarding `O=C(O[C@@H]1Cc2c(O)cc(O)cc2O[C@@H]1c1ccc(O)c(O)c1)c1cc(O)c(O)c(O)c1` [ECG], the “inhibition of seeding by AD brain extracts compared with EGCG” value in [1] is “inhibit seeding as well as the linker-conjugated analogs”.

The record behind these values is US20230226016A1, “AGENTS AND METHODS FOR TREATING TAUOPATHIES” (The Regents of University of California, priority 2020, published 2023).
